The record followed here is patent US11098061B2 (Celgene CAR LLC, priority 2013, dated 2021).

Test [1] concerns the target p38a activated, mitogen-activated protein kinase-activated protein kinase 2 (MAPKAP-K2 or MK-2) enzyme (Homo sapiens (Human), UniProt P49137). The test can be described thus: MK2 Omnia continuous-read kinase assay for compound potency. It is filed as biochemical. Conditions: [MK-2]=0.4 nM, [ATP]=1.0 mM, [ST3-Sox]=10 μM. The essentials:
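Continuous Omnia fluorescence read (λex360/λem485) every 71 s after starting with 0.4 nM MK-2, with 1.0 mM ATP (appKM 8-10 μM) and 10 μM ST3-Sox substrate.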

Test [2] deals with T1, MK2 (Homo sapiens (Human), UniProt P49137). Nature of the test: MK2 cellular assay (Hsp27 phosphorylation in Thp-1 cells). Format: cell-based. Conditions: differentiated Thp-1 cells, compound 1 hour, 50 ng/ml LPS 15 minutes, phosphorylation of Hsp27; read-out: MK2EC50. The essentials:
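PMA-differentiated (10 ng/ml, 2 days) human Thp-1 monocytic cells given compound for 1 h, washed, then stimulated with 50 ng/ml LPS for 15 min. Hsp27 phosphorylation measured by western blot of lysates (20 μg protein); EC50 from dose-response inhibition.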

Test [3] concerns the target T1, MK2. Nature of the test: MK2 modification assessment by whole protein mass spectrometry. Format: binding. Conditions: intact MK2, 60 min, 10-fold excess of compound to protein. A digest of the protocol:
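MK2 treated with compound is analysed intact by MALDI-TOF after C4 cleanup in sinapinic acid matrix. Percent modification is the centroid mass shift against control MK2 divided by compound mass.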

Test [4] concerns TNFα release. The test can be described thus: IV mouse PD experiment (TNFα release after LPS). Format: in vivo. Conditions: CD-1 male mice, less than 10 mg/kg IV, 1 hour prior to LPS. The method, then: CD-1 male mice, approximately 5 weeks old were acquired from Charles River Laboratories. Animals were housed in ventilated cages with a 12/12 light cycle and provided rodent chow and water ad libitum. Mice were acclimated at least 1 week prior to study initiation (approximately 6 weeks old). Five (5) mice per group were predosed with one of the following compounds: II-14, III-32, III-8, III-4, II-27 and III-40 (intravenously by lateral tail vein), 1 hour prior to LPS administration. LPS (E.Coli 055:B5 from Sigma, Cat #L2880) was diluted in 0.9% sterile saline (Webster Veterinary Supply, Cat #07-883-6734) to a final concentration of 30 μg/mL. Animals were administered 15 μg in 0.5 mL/mouse (approximately 0.5 mg/kg LPS) intraperitoneally. One hour post LPS administration, the mice were sacrificed via CO2 and whole blood was collected by cardiac puncture. Blood was placed in EDTA K2 tubes (Braintree Scientific, Cat #MT-1395), inverted 3 times and placed on wet ice until centrifugation at 4° C. Plasma was collected and stored on dry ice until stored at −80° C. until processing. TNFα levels were quantified using the “Mouse TNF-alpha Ultra-Sensitive Kit” from mesoscale.com (catalog number K152BHC-2) in conjunction with an MSD plate reader.

Test [5] deals with T1, MK2. Nature of the test: MK2 target occupancy assay in Thp-1 cells with Covalent probe 2. Format: cell-based. Conditions: 1 μM test compound, 1 hour at 37° C. The method, then: This experiment measured occupancy of the MK2 target by compounds according to the invention. Thp-1 cells (human acute monocytic leukemia) were grown in suspension in T225 flasks. Two days prior to assay, Thp-1 cells were spun down, counted and plated at 1×10^6 cells per well of a 12 well plate in compete media containing 10 ng/ml PMA (phorbol myristate acetate) to differentiate the cells. On day of assay, cells were washed with complete media, and a -test compound was added to cells at a concentration of 1 μM in complete media and incubated for 1 hour at 37° C. Cells were washed 1× with PBS and lysed on ice with BioRad Bioplex lysis buffer. The lysates were incubated with 1 μM biotinylated MK2 Covalent probe 2 at room temperature for 1 hour. 50 μg of total protein from lysates was loaded on gel and blots were probed for total MK2 with SC-100393 antibody and for probe with streptavidin-800. The amount of covalent probe signal divided by the amount of MK2 signal for samples with no test compound treatment represents the maximum probe signal (MPS). In samples treated with test compound prior to covalent probe, the ratio of probe signal to MK2 signal (the test probe signal, TPS) will be reduced by the degree of target occupancy by the test compound which blocks covalent probe binding. […] This ratio is then expressed as a percent occupancy.

Test [6] has as its system TNFα release. The test can be described thus: PO mouse PD experiment (TNFα release after LPS). Format: in vivo. Conditions: CD-1 male mice, 100 mg/kg PO, 1 hour prior to LPS, read-out: % Inhibition of TNFa.
The test system of test [7] is TNFα release. The test can be described thus: PO mouse PD experiment (TNFα release after LPS). It is filed as in vivo. Conditions: CD-1 male mice, 30 mg/kg PO, 1 hour prior to LPS, read-out: % Inhibition of TNFa. The method, then: CD-1 male mice, approximately 5 weeks old were acquired from Charles River Laboratories. Animals were housed in ventilated cages with a 12/12 light cycle and provided rodent chow and water ad libitum. Mice were acclimated at least 1 week prior to study initiation (approximately 6 weeks old). Five (5) mice per group were predosed at 30 mg/kg PO with one of the following compounds: III-8, III-35, II-27, III-47, III-56, V-39, II-27, III-37, II-e-1, II-e-3, III-40, and V-58 (by oral gavage as a suspension in 0.5% methyl cellulose/0.25% Tween 80 in deionized water), 1 hour prior to LPS administration. LPS (E.Coli 055:B5 from Sigma, Cat #L2880) was diluted in 0.9% sterile saline (Webster Veterinary Supply, Cat #07-883-6734) to a final concentration of 30 μg/mL. Animals were administered 15 μg in 0.5 mL/mouse (approximately 0.5 mg/kg LPS) intraperitoneally. One hour post LPS administration, the mice were sacrificed via CO2 and whole blood was collected by cardiac puncture. Blood was placed in EDTA K2 tubes (Braintree Scientific, Cat #MT-1395), inverted 3 times and placed on wet ice until centrifugation at 4° C. Plasma was collected and stored on dry ice until stored at −80° C. until processing. TNFα levels were quantified using the “Mouse TNF-alpha Ultra-Sensitive Kit” from mesoscale.com (catalog number K152BHC-2) in conjunction with an MSD plate reader.

The target in test [8] is T1, MK2. The test can be described thus: MK2 Thp-1 washout assay. Format: cell-based. Conditions: up to 6 hours after a 100 nM exposure (1 hour) and subsequent washout, Thp-1 cells. The method, then:
Test compounds were assayed in Thp-1 human acute monocytic leukemia cells. Thp-1 were grown in suspension in T225 flasks. Two days prior to assay, Thp-1 cells were spun down, counted and plated at 1×10^6 cells per well of a 12 well plate in complete media containing 10 ng/ml PMA (phorbol myristate acetate) to differentiate the cells. […] Cells were thoroughly washed to remove the unbound test compound and placed back in the 37° C. tissue culture incubator for the washout period (0 h, 2 h, 6 h, or 16 h). After the washout, complete media containing 50 ng/ml LPS (lipopolysaccharide) was added for 15 minute stimulation, the cells were washed once with PBS, and protein lysates were prepared on ice with BioRad Bioplex lysis buffer. 20 μg total protein from each lysate was loaded on the gel and analyzed by SDS-PAGE. Western blots were probed for phosphorylation of the MK2 substrate Hsp27.

Chain of p38a activated, mitogen-activated protein kinase-activated protein kinase 2 (MAPKAP-K2 or MK-2) enzyme (P49137 whole entry): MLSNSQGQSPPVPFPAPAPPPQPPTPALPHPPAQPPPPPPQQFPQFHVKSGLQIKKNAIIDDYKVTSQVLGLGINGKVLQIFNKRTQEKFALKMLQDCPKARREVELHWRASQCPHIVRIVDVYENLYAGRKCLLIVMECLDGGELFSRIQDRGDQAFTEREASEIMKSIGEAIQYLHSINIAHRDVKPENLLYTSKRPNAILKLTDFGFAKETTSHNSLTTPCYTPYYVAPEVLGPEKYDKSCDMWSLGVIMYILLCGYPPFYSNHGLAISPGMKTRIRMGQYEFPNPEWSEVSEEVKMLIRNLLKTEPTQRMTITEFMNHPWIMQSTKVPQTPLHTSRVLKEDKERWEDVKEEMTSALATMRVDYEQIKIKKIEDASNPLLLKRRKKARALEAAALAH
T1 sequence (P49137 whole entry): as above

As usually defined, the IC50 is the midpoint of a concentration-inhibition curve. On to `C=CC(=O)Nc1cc(NC(=O)c2ccc3sc4c(c3c2)NC[C@@H](C)NC4=O)ccc1N1CCN(C)CC1` [III-4, (R)—N-(3-acrylamido-4-(4-methylpiperazin-1-yl)phenyl)-3-methyl-5-oxo-2,3,4,5-tetrahydro-1H-benzo[4,5]thieno[3,2-e][1,4]diazepine-9-carboxamide], for which the 50% inhibitory concentration (IC50) in test [1] is below 100 nM. For the same molecule, the EC50 in test [2] is below 100 nM. Moreover, the “MK2 Mass Mod” value in test [3] is recorded as “E (mass modification of ≥70%)”. Moreover, the “reduction in TNFα release compared to untreated control” value (“reduction in TNFα release” for short) in test [4] is recorded as “greater than 90%”.

As to `C=CC(=O)N1CC(C)(C)Oc2ccc(NC(=O)c3ccc4sc5c(c4c3)NC[C@@H](C)NC5=O)cc21` [III-32, (R)—N-(4-acryloyl-2,2-dimethyl-3,4-dihydro-2H-benzo[b][1,4]oxazin-6-yl)-3-methyl-5-oxo-2,3,4,5-tetrahydro-1H-benzo[4,5]thieno[3,2-e][1,4]diazepine-9-carboxamide], the IC50 in test [1] was below 100 nM. Moreover, the EC50 in test [2] was below 100 nM. In addition, the “MK2 Mass Mod” value in test [3] is “E (mass modification of ≥70%)”. Further, the “reduction in TNFα release” value in test [4] is reported as “greater than 90%”.

Take `C=CC(=O)Nc1cc(-c2ccc3c(ccc4sc5c(c43)NC[C@@H](C)NC5=O)n2)ccc1OCCOC` [III-8, (R)—N-(2-(2-methoxyethoxy)-5-(10-methyl-8-oxo-9,10,11,12-tetrahydro-8H-[1,4]diazepino[5′,6′:4,5]thieno[3,2-f]quinolin-3-yl)phenyl)acrylamide]: in test [1], the IC50 is 101 to 500 nM. The EC50 in test [2] is below 100 nM. The molecule also registered a receptor occupancy at 1 µM in test [5] of 92%. In test [3], the “MK2 Mass Mod” value is given as “E (mass modification of ≥70%)”. Besides, the “reduction in TNFα release” value in test [4] was “greater than 90%”. Besides, in test [6], the inhibition in vivo at 100 mg/kg was 21 to 80%.

Consider `C=CC(=O)Nc1cc(-c2cc3c(cn2)CCc2c-3[nH]c3c2C(=O)NC2(CC2)C3)ccc1N1CCN(C)CC1` [II-27, N-(2-(4-methylpiperazin-1-yl)-5-(7′-oxo-5′,6′,7′,8′,10′,11′-hexahydrospiro[cyclopropane-1,9′-pyrido[3′,4′:4,5]pyrrolo[2,3-f]isoquinolin]-2′-yl)phenyl)acrylamide], for which, in test [1], the half-maximal inhibitory concentration (IC50) is below 100 nM. Further, in test [2], the EC50 was below 100 nM. In test [3], the “MK2 Mass Mod” value is on record as “E (mass modification of ≥70%)”. Further, the “reduction in TNFα release” value in test [4] was “greater than 90%”. Also, the inhibition in vivo at 30 mg/kg in test [7] is at most 20%.

On to `C=CC(=O)NC1CCCC1NC(=O)c1ccc2sc3c(c2c1)NC[C@@H](C)NC3=O` (stereo partly drawn) [III-47], for which, in test [1], the IC50 is below 100 nM. The EC50 in test [2] is below 100 nM. Moreover, the “MK2 Mass Mod” value in test [3] is given as “E (mass modification of ≥70%)”. Moreover, in test [7], the inhibition in vivo at 30 mg/kg was at most 20%.

`C=CC(=O)Nc1cc(-c2ccc3c(ccc4sc5c(c43)NC[C@@H](C)NC5=O)n2)ccc1OCCN(C)C` [III-40, (R)—N-(2-(2-(dimethylamino)ethoxy)-5-(10-methyl-8-oxo-9,10,11,12-tetrahydro-8H-[1,4]diazepino[5′,6′:4,5]thieno[3,2-f]quinolin-3-yl)phenyl)acrylamide]: the IC50 in test [1] is below 100 nM. Moreover, the EC50 in test [2] was below 100 nM. In addition, the “reduction in TNFα release” value in test [4] is reported as “greater than 90%”. In test [7], the inhibition in vivo at 30 mg/kg was at most 20%.

Regarding `C=CC(=O)Nc1cc(-c2cc3c(cn2)CCc2c-3[nH]c3c2C(=O)NC2(CC2)C3)ccc1OCCOC` [II-11, N-(2-(2-methoxyethoxy)-5-(7′-oxo-5′,6′,7′,8′8′,1′,11′-hexahydrospiro[cyclopropane-1,9′-pyrido[3′,4′:4,5]pyrrolo[2,3-f]isoquinolin]-2′-yl)phenyl)acrylamide], in test [1], the IC50 was below 100 nM. Further, in test [2], the EC50 is below 100 nM. The receptor occupancy at 1 µM in test [5] is 95%. In test [3], the “MK2 Mass Mod” value is reported as “E (mass modification of ≥70%)”. In test [8], the “inhibition of p-hsp27 (phosphorylated hsp27) after washout” value was above 95%.

For the molecule `C=CC(=O)Nc1cc(-c2cc3c(cn2)CCc2c-3[nH]c3c2C(=O)NCC3)cnc1OCCOC` [II-14, N-(2-(2-methoxyethoxy)-5-(7-oxo-6,7,8,9,10,11-hexahydro-5H-pyrido[3′,4′:4,5]pyrrolo[2,3-f]isoquinolin-2-yl)pyridin-3-yl)acrylamide], in test [1], the IC50 is below 100 nM. Also, in test [2], the EC50 was below 100 nM. In addition, the “MK2 Mass Mod” value in test [3] is reported as “E (mass modification of ≥70%)”. Moreover, the “reduction in TNFα release” value in test [4] is on record as “greater than 90%”.
